Assay [1] relates to PGRMC1. Also noted: method as in Xu et al., 2011. The conditions noted are these: ref Xu et al., 2011, cited from earlier work.
The target of assay [2] is T1, S1R (Mus musculus, UniProt O55242).
T1 construct: membranes prepared from control and PGRMC1 knockout (clones 38 and 207) NSC34 cells; endogenous in cells; host or cells: NSC34 cells (control and PGRMC1 knockout clones 38 and 207)
The assay can be described thus: [^125I]-IAF photolabeling of the S1R in NSC34 cell membranes. Type of assay: binding. The conditions noted are these: NSC34 membranes (control and PGRMC1 knockout). Here is the method:
(§1) Cell membrane preparation was performed following our established method ([Guo et al., 2012]). Briefly, cell pellets were suspended in PBS and sonicated on ice using the following settings: 5 sets (10 strokes/set) at duty cycle = 50, output control = 5. Cell homogenates were centrifuged at 8000 × g for 10 min, and the resulting supernatant was collected and subjected to ultracentrifugation at 100,000 × g for 1 h. The supernatant was discarded and the pellet was gently washed twice with ice-cold PBS. The pellet was then resuspended in PBS and sonicated (3 sets, 10 strokes/set at duty cycle = 50, output control = 5) to homogeneity. Protein concentration was then measured using the standard Bradford reagent (Sigma-Aldrich, St. Louis, MO).
(§2) The synthesis of [^125I]-IAF and photolabeling was performed according to our published method ([Pal et al., 2007]). […] [^125I]-IAF was then added (final 1 nM) and incubated for another 40 min with gentle shaking in the dark. Photoactivation of [^125I]-IAF was performed by exposing the samples to a high-pressure AH-6 mercury lamp for 5 s and Laemmli buffer was immediately added to each sample. The samples were then resolved on a 16 × 18 cm SDS gel with 6–18% acrylamide gradient. The gel was dried and exposed to a phosphor screen for 24–48 h and autoradiograms were recorded using a Phosphoimager (Molecular Dynamics).

In assay [3] the target is T1, S1R. Conditions: cited from earlier work; for affinity for the S1R: ref Hellewell et al., 1994.
Assay [4] deals with T2, S2R (Rattus norvegicus, UniProt Q5U3Y7).
T2 construct: [^125I]-IAF photolabeling of the S2R in PC12 membranes; endogenous in cells; host or cells: PC12 cells
T2 sequence (Q5U3Y7 1-176): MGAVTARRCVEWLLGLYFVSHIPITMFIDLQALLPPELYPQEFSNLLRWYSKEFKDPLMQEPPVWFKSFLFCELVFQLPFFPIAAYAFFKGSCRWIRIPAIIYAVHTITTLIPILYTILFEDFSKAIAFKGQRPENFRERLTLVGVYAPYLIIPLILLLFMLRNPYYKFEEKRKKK
The assay is described as follows: [^125I]-IAF photolabeling of the S2R in PC12 membranes. Type of assay: binding. As to the method:
as §1, §2

For assay [5], the target named is PGRMC1 (Rattus norvegicus, UniProt P70580). The assay can be described thus: biochemical.
Chain of PGRMC1 (Rattus norvegicus, UniProt P70580) (P70580 whole entry): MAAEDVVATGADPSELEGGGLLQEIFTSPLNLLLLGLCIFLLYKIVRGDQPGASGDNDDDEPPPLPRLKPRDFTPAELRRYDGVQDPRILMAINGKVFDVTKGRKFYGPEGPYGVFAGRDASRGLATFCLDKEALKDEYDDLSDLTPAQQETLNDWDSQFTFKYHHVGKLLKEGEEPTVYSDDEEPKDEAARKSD
Experimental: Liver tissues were homogenized (10 ml buffer/g wet tissue) by 4 bursts of 10 s each using a Brinkman polytron (American Laboratory Trading Inc., East Lyme, CT) on setting 6 in ice-cold sodium phosphate buffer (10 mM pH 7.4) containing 0.32 M sucrose and a cocktail of protease inhibitors (20 μg/ml leupeptin, 5 μg/ml soybean trypsin inhibitor, 100 μM phenylmethylsulfonyl fluoride (PMSF), 100 μM benzamidine and 1 mM EDTA). The membrane suspension after homogenization was centrifuged for 10 min at 17,000 × g and the supernatant was subjected to ultracentrifugation at 100,000 × g for 1 h to collect membrane fractions. The pellet from the second centrifugation was resuspended to a protein concentration of 10 mg/ml in the foregoing buffer, snapped frozen and stored at − 80 °C.
Inhibition of [^3H]-progesterone binding to PGRMC1 was performed according to [Peluso et al. (2008)]. […] After incubation at 37 °C for 60 min, the reaction was terminated by rapid filtration through glass fiber filters, using a Brandel cell harvester and processed as described above. […] Nonspecific binding was monitored in the presence of nonradioactive progesterone at 10 μM and subtracted from total [^3H]-progesterone binding.
For assay [6], the target named is T3, S2R (Mus musculus, UniProt Q8VD00).
T3 construct: Membranes (28 μg total proteins per reaction) prepared from NSC34 cells of controls, PGRMC1 knockout, or PGRMC1-3 × HA overexpression; endogenous in cells; host or cells: NSC34 cells (control, PGRMC1 knockout clones 38 and 207, PGRMC1-3xHA overexpressing)
T3 sequence (Q8VD00 1-176): T2 sequence (Q5U3Y7 1-176) with V4L, T5A, M26L, L33V, F71L, V105A, I118L, I127V, N136S, F169Y
The arrangement: method as in Pal et al., 2007. Conditions: earlier work of the group; ref Pal et al., 2007; cited from earlier work.

Assay [7] deals with T3, S2R. The assay is described as follows: [^125I]-IAF photolabeling of the S2R in NSC34 cell membranes. The class given is binding. The conditions noted are these: NSC34 membranes (control and PGRMC1 knockout); 20 μM. Here is the method: as §1, §2
For assay [8], the target named is T4, S1R (Rattus norvegicus, UniProt Q9R0C9).
T4 construct: endogenous in cells; host or cells: PC12 cells
T4 sequence (Q9R0C9 whole entry): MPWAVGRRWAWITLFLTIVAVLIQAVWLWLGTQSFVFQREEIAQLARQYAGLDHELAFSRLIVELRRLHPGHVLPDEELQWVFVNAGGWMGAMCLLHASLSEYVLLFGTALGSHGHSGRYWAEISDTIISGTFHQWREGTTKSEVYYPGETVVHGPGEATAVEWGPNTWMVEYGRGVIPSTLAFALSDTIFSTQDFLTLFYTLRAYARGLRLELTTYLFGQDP
The assay can be described thus: [^125I]-IAF photolabeling of the S1R in PC12 membranes. The class given is binding. Conditions: 20 μM. Here is the method: as §1, §2

Assay [9] deals with T3, S2R. Conditions: cited from earlier work.
Assay [10] deals with T1, S1R. Also noted: method as in Matsumoto et al., 2014. Conditions: competitive [^3H]-DTG binding assays; ref Matsumoto et al., 2014; cited from earlier work.
The target in assay [11] is T3, S2R. Also noted: method as in Matsumoto et al., 2014. The conditions noted are these: competitive [^3H]-DTG binding assays; ref Matsumoto et al., 2014; cited from earlier work.
Assay [12] deals with T5, S2R (sigma-2 receptor) (Rattus norvegicus, UniProt Q5U3Y7).
T5 construct: Experiments were performed with rat liver membranes; tissue Pel Freez Biologicals; host or cells: rat liver
T5 sequence (Q5U3Y7 1-176): T2 sequence (Q5U3Y7 1-176)
The assay is described as follows: Inhibition of [^3H]-DTG binding to the S2R in rat liver membranes.
Experimental: Rat liver membranes, a rich source of sigma-2 receptor, were prepared as described in our previous reports ([Pal et al., 2007], [Guo et al., 2012]) from frozen tissues (Pel Freez Biologicals, Rogers, AR). Liver tissues were homogenized (10 ml buffer/g wet tissue) by 4 bursts of 10 s each using a Brinkman polytron (American Laboratory Trading Inc., East Lyme, CT) on setting 6 in ice-cold sodium phosphate buffer (10 mM pH 7.4) containing 0.32 M sucrose and a cocktail of protease inhibitors (20 μg/ml leupeptin, 5 μg/ml soybean trypsin inhibitor, 100 μM phenylmethylsulfonyl fluoride (PMSF), 100 μM benzamidine and 1 mM EDTA). The membrane suspension after homogenization was centrifuged for 10 min at 17,000 × g and the supernatant was subjected to ultracentrifugation at 100,000 × g for 1 h to collect membrane fractions. The pellet from the second centrifugation was resuspended to a protein concentration of 10 mg/ml in the foregoing buffer, snapped frozen and stored at − 80 °C.

Assay [13] addresses PGRMC1. The conditions noted are these: ref Peluso et al., 2008; cited from earlier work.
The target of assay [14] is T3, S2R. The assay can be described thus: Saturation binding of [^3H]-DTG in NSC34 cell membranes, S1R masked with (+)-pentazocine. The conditions noted are these: mean ± SEM. Here is the method: as §1

These results are taken from article PMC4740303, “The Sigma-2 Receptor and Progesterone Receptor Membrane Component 1 are Different Binding Sites Derived From Independent Genes” (EBioMedicine, 2015).

Residue numbers refer to the chain shown, from its start. Entries after “also recorded” stand apart in the source; their conditions may differ.

T1 sequence (O55242 whole entry): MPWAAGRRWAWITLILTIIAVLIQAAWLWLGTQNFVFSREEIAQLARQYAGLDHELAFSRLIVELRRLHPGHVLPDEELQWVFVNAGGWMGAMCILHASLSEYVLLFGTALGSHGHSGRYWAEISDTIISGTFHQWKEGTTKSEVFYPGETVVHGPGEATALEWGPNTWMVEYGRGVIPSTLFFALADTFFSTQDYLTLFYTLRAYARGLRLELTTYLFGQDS

Turning to `CC(C)=CCN1CC[C@]2(C)c3cc(O)ccc3C[C@H]1[C@H]2C` [(+)-pentazocine], the “ligand for PGRMC1” value in [1] is “not a ligand for PGRMC1”. Further, in [2] (5 μM), the “protection of [^125I]-IAF photolabeling of the S1R (26 kDa band)” value was “protected against [^125I]-IAF photolabeling of the S1R; also recorded: readily protected”. In addition, the “affinity for the S1R” value in assay [3] is less than 10 nM.

As a reminder, the Ki is a dissociation constant, usually derived from enzyme kinetics or from competition with a known ligand. A word on the Kd: it is a measure of binding affinity in units of concentration. In the case of `Cc1ccccc1NC(=N)Nc1ccccc1C` [DTG, 1,3-di-o-tolylguanidine], the “protection of [^125I]-IAF photolabeling of the S2R” value in assay [4] (20 μM) is given as “protected”. Moreover, the “protection of photolabeling of PGRMC1 (with WC-21)” value in assay [1] (1 μM) is “protected the photolabeling of PGRMC1”. Besides, the “protection of [^125I]-IAF photolabeling of the S1R (26 kDa band)” value in assay [2] (20 μM) was “protected against photolabeling of both the S1R and the S2R”. For the same molecule, the Ki in assay [5] was 472000 nM. Besides, in assay [6], the “protection of the [^125I]-IAF photolabeled S2R band” value is reported as “protected”. Further, the “protection of [^125I]-IAF photolabeling of the S2R (~18 kDa band)” value in assay [7] was “protected against photolabeling of both the S1R and the S2R”. Besides, the “protection of [^125I]-IAF photolabeling of the S1R” value in assay [8] is given as “protected”. In addition, the Kd in [3] (read-out: KD for DTG at the S1R, depending on sources of membranes and assay methods, ref Weber et al., 1986, Quirion et al., 1992, Itzhak and Kassim, 1990, Itzhak, 1987) was 20 to 80 nM. In addition, the “affinity for the S1R” value in [3] was ~ 50 nM. Moreover, in assay [9] (ref Hellewell et al., 1994), the “affinity for the S2R” value was ~ 50 nM.

Turning to `COc1cc2c(cc1OC)CN(CCCCn1c(=O)n(C)c3ccccc31)CC2` [CM398], the Ki in assay [10] was 560 nM; in [11] it was 0.43 nM. Further, the “protection of [^125I]-IAF photolabeling of the S2R” value in assay [4] (1 and 10 μM) is “selectively blocked the labeling of the S2R”.

Take `O=c1oc2cc(N=C=S)ccc2n1CCCCN1CCN(c2ccc(F)cc2)CC1` [CM572]: the “type of S2R ligand” value in [9] (ref Nicholson et al., 2015) is “irreversible selective affinity label for the S2R”.

For `CC(=O)[C@H]1CC[C@H]2[C@@H]3CCC4=CC(=O)CC[C@]4(C)[C@H]3CC[C@]12C` [progesterone], the Ki in assay [12] is 14200 ± 4900 nM. Further, in assay [13], the dissociation constant (Kd) is 35 nM.

As to `CC(=O)[C@H]1CC[C@H]2[C@@H]3CCC4=CC(=O)CC[C@]4(C)[C@H]3CC[C@]12C` [[^3H]-progesterone], in assay [13], the Kd was 35 nM.

In the case of `Cc1ccccc1NC(=N)Nc1ccccc1C` [[^3H]-DTG, [^3H]-1,3-Di-tolylguanidine], the Bmax in assay [14] (Control NSC34 cells (expression vector without PGRMC1 gene)) came to 2.35 ± 0.5 pmol/mg; in assay [14] (PGRMC1-HA overexpressing NSC34 cells), 2.5 ± 0.08 pmol/mg.
